Experimental data taken from patent publication US20250041377A1, “PHARMACEUTICAL USE” (ENLITISA (SHANGHAI) PHARMACEUTICAL CO., LTD., priority 2018, published 2025).
Where a SMILES comes first, the peptide text is derived from it. Where no end group is shown, it is not given here. [ ]: non-standard residue; d: D form. Dopa = N[C@@H](Cc1ccc(O)c(O)c1)C(=O)O; Hyp = O=C(O)[CH]1C[CH](O)CN1; 3Hyp = 3-hydroxyproline

Key:
common cold = assay: Liquid spray to treat common cold; format: in vivo, human
Experimental: Compound B was dissolved in Injection water (WFI; from a TC-RO-0.25 T/h-2 water treatment system, Yangzhou Tiancheng Water Treatment Devices & Engineering Co., Ltd., Yangzhou, China). The concentration was 0.5 mg/mL. 5 mL was loaded into a plastic water spray bottle.
The enrolled subject in the study was inflicted with a common cold for 2 days prior to treatment. Other cold treatments were not used before treatment. The subject, who presented a cough, a sore throat and a loss of voice, was required to use the liquid spray (3 to 5 presses each time, in the morning and evening.

[1] = test system: carrageenan-induced acute inflammation in subcutaneous air pouch; assay: Air pouch model, histological scores of skin biopsies; format: in vivo, C57BL/6 mice; set-up: Fibroplastic proliferation score: scale not given here; settings: for Fibroplastic proliferation score / Inflammation score / Edema Score: 0.6 mg/mL, 300 μg/mouse injected into air pouch 1 hour before carrageenan; for Inflammation score: HE slices scored 1-3 points; for Edema Score: scored 1-3 points; for Sum: sum of scores, 300 μg/mouse into air pouch
Experimental: Healthy adult male C57BL/6 mice weighing between 20 and 30 g were supplied by Nanjing Biomedicial Research Institute of Nanjing University (NBRI). Prior to any experiments being conducted, mice were housed under standardized conditions (at a constant temperature of 22±2° C., with alternating 12 hour periods of light and darkness), and were fed on a standard mouse diet with water, for about a week.
General anesthesia was induced using intraperitoneal 3% chloral hydrate (Sinopharm Chemical Reagent Co., Ltd., Shanghai, China; 1 mL/10 g of body weight). The hair of the entire dorsum was shaved and depilated 1 day before sterile air injection.
Air pouches were produced by subcutaneous injection of sterile air (5 mL) into the intrascapular area of the mice. After three days, another injection of air (3 mL) was performed to maintain the pouches. In order to induce acute inflammation, three days after this final injection, animals received an injection of sterile carrageenan solution (CP Kelco, Taixing, Jiangsu Province, China. 1%, 0.5 mL; produced by adding 0.1 g of carrageenan powder into a beaker containing 10 mL of 0.9% saline solution and stirring). Mice were pre-treated with test samples or vehicle 1 hour before and 23 hours after the carrageenan injection into the subcutaneous air pouch. Animals were sacrificed 24 hours after the carrageenan injection.
Skin biopsies were taken from the air pouches. A part of the biopsy was fixed in formalin (produced by adding ultra pure water to 50 mL of a 40% formaldehyde solution (Nanchang Rain Dew Experimental Equipment Co., Ltd., Nanchang, Hubei Province, China) up to a total volume of 500 mL) and analyzed by histological embedding in paraffin wax, sectioning and staining.
After conducting some preliminary experiments to validate the model, an experiment was conducted in which mice were treated by administering test samples or vehicle in accordance with Table 1 below.
All the substances listed in Table 1 were administrated topically by directly injecting into the air pouches.
The histological specimens were analyzed and an inflammation score, an activity score (i.e. the number and density of neutrophils shown in pathological slides, indicating the degree of inflammation and, in the case of open wound and infective diseases, the degree of infection), an edema score and a fibroblast proliferation score were estimated as follows.
The HE stained slices were observed under an optical microscope and were scored (1, 2 or 3 points) according to the perceived inflammation level (in cases showing only a small amount of inflammatory cells scattered in the area-1 point (mild); in cases where many inflammatory cells were observed-2 points (moderate); and, in cases with diffuse infiltration-3 points (severe). A similar scoring system was employed for edema levels (3 points for most severe and 1 point for mild) after overall observation. Scores for neutrophils employed the same methodology as that employed for inflammatory cells.

[2] = test system: full thickness skin wound on the back; assay: Acute wound model, remaining wound area; format: in vivo, C57BL/6 mice; settings: for ratio of remaining wound area of initial wound: ± SD
Experimental: 6-8 weeks old male C57BL/6 mice were supplied by Changzhou Cvens Experimental Animal Co. Ltd (Changzhou, Jiangsu Province, China). Prior to any experiments being conducted, mice were housed under standardized conditions (at a constant temperature of 22±2° C., with alternating 12 hour periods of light and darkness), and were fed on a standard mouse diet with water, for about a week.
General anesthesia was induced using intraperitoneal 3% chloral hydrate (1 mL/10 g of body weight). The hair on the back was shaved by a baby hair shaver and depilated with cream. The skin area was wiped and sterilized with 75% alcohol twice.
An EMS skin biopsy punch (Electron Microscopy Sciences, P.O. Box 550, 1560 Industry Road, Hatfield, PA, USA) with a 18 mm diameter was used to make a round wound on the back. The full thickness of skin was removed and the depth of the wound reached the fascia. Wounds were left open without a suture.
The model group was given same amount of normal saline. There were 8 mice in each group.
Recombinant Human Epidermal Growth Factor (rhEGF, Shanghai Haohai Biological Technology Co. Ltd, 23/F, Shanghai, China) was purchased and prepared according to the manufacturer's instructions. The lyophilized rhEGF powder (100000 IU/vial) was dissolved in 20 mL of normal saline to make a solution with a concentration of 5000 IU/mL. The working dose of rhEGF for this experiment was 1285 IU/wound.
For this experiment, Compound A was also obtained from GL Biochem (Shanghai) Ltd. The peptide powders were stored at −20° C. and dissolved in saline at concentrations of 61.8 μg/mL (Compound A), and 61 μg/mL (Compound B). 50 μL of the solutions were applied onto the wound surfaces.
Wounds were dressed with gauze and transparent dresser after drug administration. Photographs were taken for each wound every other day from Day 0. Photos were scanned into a computer, and wound areas calculated using ImageJ image analysis software (National Institutes of Health, […]).
The unhealed wound area was expressed as a percentage of the original wound area: […]
where A0 and At refer to the initial area at Day 0 and the wound area at the date of measurement (time t), respectively.

fever = assay: Aerosol inhalation to treat fever; format: in vivo, human
Experimental: The same formulation as described in Example 14 above was administered to a subject who enrolled in the study having had got a fever (a body temperature over 38.5° C.) for 1 day. Other anti-fever medications were not used prior to treatment.
The subject was required to use the aerosol inhalation device in the morning and in the evening by pouring 3 mL of the formulation into an atomizer storage tank connected to an atomizer and a mask, which was worn over the mouth and nose.

[3] = Day 0, topical 50 μL/wound once daily, rhEGF 1285 IU/mouse, Compound A 3.09 μg/mouse, Compound B 3.05 μg/mouse

Row | Compound | throat pain (common cold; liquid spray 0.5 mg/mL in WFI, 3 to 5 presses morning and evening, after the first use) | throat pain and voice (common cold; liquid spray 0.5 mg/mL, after the second use) | Fibroplastic proliferation score [1] | Inflammation score [1] | Edema Score [1] | Sum [1] | ratio of remaining wound area of initial wound [2, 3] | ratio of remaining wound area of initial wound ([2]; Day 1, topical once daily) | ratio of remaining wound area of initial wound ([2]; Day 2, topical once daily) | ratio of remaining wound area of initial wound ([2]; Day 3, topical once daily) | ratio of remaining wound area of initial wound ([2]; Day 4, topical once daily) | improvement rate ([2]; Day 4, versus model group) | ratio of remaining wound area of initial wound ([2]; Day 5, topical once daily) | ratio of remaining wound area of initial wound ([2]; Day 6, topical once daily) | recurrence of fever symptoms (fever; 0.5 mg/mL aerosol inhalation, morning and evening) | body temperature (fever; 0.5 mg/mL, 3 mL aerosol inhalation, subject with body temperature over 38.5° C.)
1 | CC(N)C(=O)NC(CCCCN)C(=O)N1CCCC1C(=O)NC(CO)C(=O)NC(Cc1ccc(O)cc1)C(=O)N1CC(O)CC1C(=O)N1CC(O)CC1C(=O)NC(C(=O)NC(Cc1ccc(O)cc1)C(=O)NC(CCCCN)C(=O)O)C(C)O (stereo not drawn) [Compound B, Ala-Lys-Pro-Ser-Tyr-Hyp-Hyp-Thr-Tyr-Lys] (H-AKPSY[Hyp][Hyp]TYK-OH; configuration not given here) | throat pain was relieved after the first use | throat was no longer painful and could speak | 1.00 | 1.6 | 1.2 | 2.8 | 79.4 ± 3.4% | 100 ± 4.5% | 96.7 ± 5.6% | 76.7 ± 4.8% | 66.5 ± 1.4% | about 10% | 55.8 ± 1.3% | 51.9 ± 1.7% | did not recur after 3 uses | within two hours, their body temperature had dropped to normal
2 | Ala-Lys-Pro-Ser-Tyr-Hyp-Hyp-Thr-DOPA-Lys (AKPSY[3Hyp][Hyp]T[Dopa]K; listed as Mytilus edulis) [Compound A] | – | – | 0.2 | 1.6 | 1.8 | 3.4 | 77.2 ± 4.1% | 100 ± 17.1% | 81.2 ± 11.2% | 74.2 ± 0.9% | 60.9 ± 7.3% | – | 50.5 ± 11.3% | 45.8 ± 4.7% | – | –
